Experimental data from patent US10233180B2, “Substituted nitrogen-containing heterocyclic derivatives, pharmaceutical compositions comprising the same and applications of antitumor thereof” (ZHEJIANG UNIVERSITY, priority 2014, dated 2019).

Legend:
[1] = tested on: human colon cancer cell strain HCT-116; test: MTT assay, inhibition of tumor cell growth in vitro, 72 h; assay type: cell-based; conditions: Homo sapiens, HCT-116, MTT, read-out: Antitumor proliferative activities of tumor cell (IC50, μM) HCT-116 (converted)
How it was run: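 Cells in RPMI 1640 with FBS, 4000 cells/well, exposed 72 h at 37 °C, 5% CO2 to final 50, 10, 2, 0.4 and 0.08 μM; 1% DMSO blank. MTT OD gives % inhibition versus control; IC50 derived by Bliss method.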

Akt1 = target: T1, Akt1 (Homo sapiens, UniProt P31749); test: AKT1/PKBα KinEASE FP Fluorescein Green Assay (fluorescence polarization kinase kit); assay type: biochemical; conditions: 1 h reaction, read-out: Inhibitory activities against Akt1 (IC50)
T1 construct: purchased 32-021
T1 sequence (P31749 whole entry): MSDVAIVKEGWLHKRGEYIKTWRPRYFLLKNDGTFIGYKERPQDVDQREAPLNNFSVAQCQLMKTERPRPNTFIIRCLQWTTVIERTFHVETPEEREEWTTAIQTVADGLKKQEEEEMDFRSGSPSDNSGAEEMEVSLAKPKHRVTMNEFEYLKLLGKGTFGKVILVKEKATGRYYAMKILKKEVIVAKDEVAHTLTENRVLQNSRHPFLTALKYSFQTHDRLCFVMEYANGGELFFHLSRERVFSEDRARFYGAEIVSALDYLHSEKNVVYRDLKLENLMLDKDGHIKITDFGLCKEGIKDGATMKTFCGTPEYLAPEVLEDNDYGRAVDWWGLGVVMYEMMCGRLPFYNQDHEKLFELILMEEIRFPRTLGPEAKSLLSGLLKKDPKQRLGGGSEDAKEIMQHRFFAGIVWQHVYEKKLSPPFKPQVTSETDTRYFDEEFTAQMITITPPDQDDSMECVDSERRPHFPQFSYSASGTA
How it was run: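 FP competition kinase assay: compounds (50 μM stock) with STK Substrate 3 and ATP, 1 h reaction at room temperature; stopped with stop/antibody mix, 4 h at room temperature, then polarization read. Inhibition derived from polarization values; IC50 calculated; triplicate wells.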

[2] = tested on: Human ovarian cancer cell strain OVCAR-8; test: MTT assay, inhibition of tumor cell growth in vitro, 72 h; assay type: cell-based; conditions: Homo sapiens, OVCAR-8, MTT, read-out: Antitumor proliferative activities of tumor cell (IC50, μM) OVCAR-8
How it was run: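 OVCAR8 cells in RPMI 1640 plus FBS were seeded at 4000 cells/well and exposed for 72 h at 37 °C to compound at 50, 10, 2, 0.4 and 0.08 μM final, with 1% DMSO as blank. Inhibition was calculated from OD relative to control, and IC50 was derived by the Bliss method.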

IC50 [1] [µM]	IC50 (Akt1) [nM]	IC50 [2] [µM]	Structure (SMILES)
1.23	5	0.67	Cn1ncc(-c2ccccc2)c1-c1ccc(C(=O)N[C@@H]2CNCC[C@H]2c2ccc(F)c(F)c2)s1 [Compound 148, N-((3S, 4S)-4-(3,4-difluorophenyl)piperidin-3-yl)-5-(1-methyl-4-phenyl-1H-pyrazol-5-yl)thiophene-2-formamide]
4.09	10	1.32	COc1cc(C(=O)N[C@@H]2CNCC[C@H]2c2cccc(F)c2)ccc1-c1c(Cl)cnn1C [Compound 83, 4-(4-chloro-1-methyl-1H-pyrazol-5-yl)-N-((3S,4S)-4-(3-fluorophenyl)piperidin-3-yl)-3-methoxybenzamide]
5.82	0.2	0.47	CC(=O)NCCC1C[C@@H](c2ccc(F)c(F)c2)[C@H](NC(=O)c2cc(-c3c(Cl)cnn3C)c(Cl)o2)CN1 (stereo partly drawn) [Compound 126, N-((3S,4S)-6-(2-acetaminoethyl)-4-(3,4-difluorophenyl)piperidin-3-yl)-5-chloro-4-(4-chloro-1-methyl-1H-pyrazol-5-yl)furan-2-formamide]
10.3	87	2.69	Cc1cnn(C)c1-c1cnc(C(=O)N[C@H]2CNC[C@@H]2c2ccc(F)c(F)c2)cc1F (racemic) [Compound 70, 4-fluoro-5-(1,4-dimethyl-1H-pyrazol-5-yl)-N-(3,4-trans-4-(3,4-difluorophenyl)pyrrolidin-3-yl)pyridinyl-2-formamide]
0.95	0.5	0.92	Cn1ncc(Cl)c1-c1cc(C(=O)N[C@@H]2CNC(CC(O)CO)C[C@H]2c2ccc(F)c(F)c2)oc1Cl (stereo partly drawn) [Compound 128, 5-chloro-4-(4-chloro-1-methyl-1H-pyrazol-5-yl)-N-((3S,4S)-4-(3,4-difluorophenyl)-6-(2,3-dihydroxypropyl)piperidin-3-yl)furan-2-formamide]
0.99	13	2.19	CCc1cnn(C)c1-c1cc(F)c(C(=O)N[C@@H]2CNCC[C@H]2c2ccc(Cl)c(C(F)(F)F)c2)c(F)c1 [Compound 75, N-((3S,4S)-4-(4-chloro-3-(trifluoromethyl)phenyl)piperidin-3-yl)-4-(4-ethyl-1-methyl-1H-pyrazol-5-yl)-2,6-difluorobenzamide]
0.8	8	0.34	Cc1cc(C(=O)N[C@@H]2CNC(CCN3CCCCC3)C[C@H]2c2ccc(F)c(F)c2)ccc1-c1c(Cl)cnn1C (stereo partly drawn) [Compound 102, 4-(4-chloro-1-methyl-1H-pyrazol-5-yl)-N-((3S,4S)-4-(3,4-difluorophenyl)-6-(2-(piperidin-1-yl)ethyl)piperidin-3-yl)-3-methylbenzamide]
0.42	3	5.79	CNC(=O)CC1C[C@@H](c2ccc(F)c(F)c2)[C@H](NC(=O)c2cc(-c3c(Cl)cnn3C)cs2)CN1 (stereo partly drawn) [Compound 133, 4-(4-chloro-1-methyl-1H-pyrazol-5-yl)-N-((3S,4S)-4-(3,4-difluorophenyl)-6-(2-(methylamido)-2-oxyethyl)piperidin-3-yl)thiophene-2-formamide]
11.8	62	3.38	Cn1ncc(Br)c1-c1coc(C(=O)N[C@H]2CNCC[C@@H]2c2ccc(F)c(F)c2)c1 (racemic) [Compound 28, 4-(4-bromo-1-methyl-1H-pyrazol-5-yl)-N-(3,4-trans-4-(3,4-difluorophenyl)piperidin-3-yl)furan-2-formamide]
3.04	323	24.3	Cn1ncc(Cl)c1-c1cc(C(=O)N[C@H]2CNC[C@@H]2c2ccc(C(F)(F)F)cc2)oc1Cl (racemic) [Compound 69, 5-chloro-4-(4-chloro-1-methyl-1H-pyrazol-5-yl)-N-(3,4-trans-4-(4-trifluoromethylphenyl)pyrrolidin-3-yl)furan-2-formamide]

Continued, molecule first:

Structure (SMILES)	IC50 [1] [µM]	IC50 (Akt1) [nM]	IC50 [2] [µM]
C=Cc1cnn(C)c1-c1ccc(C(=O)N[C@@H]2CNCC[C@H]2c2cccc(F)c2)s1 [Compound 144, N-((3S, 4S)-4-(3-fluorophenyl)piperidin-3-yl)-5-(1-methyl-4-vinyl-1H-pyrazol-5-yl)thiophene-2-formamide]	3.68	2	3.48
CNC(=O)CC1C[C@@H](c2cccc(F)c2)[C@H](NC(=O)c2cc(Cl)c(-c3c(Cl)cnn3C)s2)CN1 (stereo partly drawn) [Compound 149, 4-chloro-5-(4-chloro-1-methyl-1H-pyrazol-5-yl)-N-((3S, 4S)-4-(3-fluorophenyl)-6-(2-(methylamido)-2-oxoethyl)piperidin-3-yl)thiophene-2-formamide]	2.56	7	3.21
Cn1ncc(Cl)c1-c1cc(C(=O)N[C@H]2CNCC[C@@H]2c2ccccc2)oc1Cl (racemic) [Compound 29, 5-chloro-4-(4-chloro-1-methyl-1H-pyrazol-5-yl)-N-(3,4-trans-4-phenylpiperidin-3-yl)furan-2-formamide]	8.67	62	1.12
Cn1ncc(Cl)c1-c1ccc(C(=O)N[C@@H]2CNCC[C@H]2c2cccc3[nH]ccc23)cc1Cl [Compound 91, N-((3S,4S)-4-(1H-indol-4-yl)piperidin-3-yl)-3-chloro-4-(4-chloro-1-methyl-1H-pyrazol-5-yl)benzamide]	0.34	5	2.91
Cn1ncc(Cl)c1-c1cc(C(=O)N[C@@H]2CNC(CC(=O)NCCO)C[C@H]2c2ccc(Cl)c(Cl)c2)oc1Cl (stereo partly drawn) [Compound 125, 5-chloro-4-(4-chloro-1-methyl-1H-pyrazol-5-yl)-N-((3S,4S)-4-(3,4-dichlorophenyl)-6-(2-((2-hydroxyethyl)amido)-2-oxoethyl)piperidin-3-yl)furan-2-formamide]	1.25	0.1	0.12
Cc1cccc([C@H]2CCNC[C@@H]2NC(=O)c2cc(Cl)c(-c3ncnn3C)o2)c1 (racemic) [Compound 7, 4-chloro-5-(1-methyl-1H-1,2,4-triazol-5-yl)-N-(3,4-trans-4-(3-methylphenyl)piperidin-3-yl)furan-2-formamide]	8.3	62	3.88
Cn1ncc(Cl)c1-c1cc(C(=O)N[C@H]2CNCC[C@@H]2c2ccc(C(F)(F)F)cc2)oc1Cl [Compound 43, 5-chloro-4-(4-chloro-1-methyl-1H-pyrazol-5-yl)-N-((3R,4R)-4-(4-trifluoromethylphenyl)piperidin-3-yl)furan-2-formamide]	13.8	342	3.58
Cn1ncc(Cl)c1-c1cc(C(=O)N[C@@H]2CNC(CCn3cncn3)C[C@H]2c2ccc(Cl)c(Cl)c2)oc1Cl (stereo partly drawn) [Compound 122, N-((3S,4S)-6-(2-(1H-1,2,4-triazol-1-yl)ethyl)-4-(3,4-dichlorophenyl)piperidin-3-yl)-5-chloro-4-(4-chloro-1-methyl-1H-pyrazol-5-yl)furan-2-formamide]	1.02	2	0.43
Cn1ncc(Cl)c1-c1cc(C(=O)N[C@@H]2CNC(CC(=O)NC3CC3)C[C@H]2c2ccc(Cl)c(Cl)c2)oc1Cl (stereo partly drawn) [Compound 119, 5-chloro-4-(4-chloro-1-methyl-1H-pyrazol-5-yl)-N-((3S,4S)-6-(2-(cyclopropylamido)-2-oxoethyl)-4-(3,4-dichlorophenyl)piperidin-3-yl)furan-2-formamide]	1.47	4	0.65
Cn1ncc(Cl)c1-c1ccc(C(=O)N[C@@H]2CNCC[C@H]2c2cccc(F)c2)s1 [Compound 138, 5-(4-chloro-1-methyl-1H-pyrazol-5-yl)-N-((3S,4S)-4-(3-fluorophenyl)piperidin-3-yl)thiophene-2-formamide]	0.56	1	3.01
CC(Cl)c1ccc([C@H]2CCNC[C@@H]2NC(=O)c2cc(Cl)c(-c3ncnn3C)s2)cc1 (stereo partly drawn) [Compound 8, 4-chloro-5-(1-methyl-1H-1,2,4-triazol-5-yl)-N-(3,4-trans-4-(4-(1-chloroethyl)phenyl)piperidin-3-yl)thiophene-2-formamide]	3.26	82	9.01
CCc1c(-c2c(Cl)cnn2C)cc(C(=O)N[C@H]2CNCC[C@@H]2C2CCC(F)C2)n1C (stereo partly drawn) [Compound 15, 5-ethyl-1-methyl-4-(4-chloro-1-methyl-1H-pyrazol-5-yl)-N-(3,4-trans-4-(3-fluorocyclopentanyl)piperidin-3-yl)-1H-pyrrole-2-formamide]	2.04	52	1.26
Cn1ncc(Cl)c1-c1cc(C(=O)N[C@@H]2CNC(CC(O)CO)C[C@H]2c2ccc(Cl)c(Cl)c2)oc1Cl (stereo partly drawn) [Compound 112, 5-chloro-4-(4-chloro-1-methyl-1H-pyrazol-5-yl)-N-((3S,4S)-4-(3,4-dichlorophenyl)-6-(2,3-dihydroxypropyl)piperidin-3-yl)furan-2-formamide]	0.84	2	0.33
CCc1cc(C(=O)N[C@@H]2CNCC[C@H]2c2ccc(C(F)(F)F)cc2)cnc1-c1c(Br)cnn1C [Compound 64, 5-ethyl-6-(4-bromo-1-methyl-1H-pyrazol-5-yl)-N-((3S,4S)-4-(4-trifluoromethylphenyl)piperidin-3-yl)pyridinyl-3-formamide]	22.6	256	1.62
